The values that follow are results of earlier work, collected in publication PMC3671928 (Analytical chemistry, 2013).

The test system of one series is U937 cells. Particulars: prolonged exposure to 1 μM.
For another series, the system named is peptidase activity. Particulars: 1 μM applied to cells for 24 h.
Series [1] concerns the target puromycin-sensitive aminopeptidase (PuSA). Particulars: read-out: IC50, puromycin-sensitive aminopeptidase (PuSA).
Series [2] addresses leucine aminopeptidase (LAP). Particulars: read-out: IC50, leucine aminopeptidase (LAP).
Another series has as its target aminopeptidase N. Particulars: read-out: IC50, aminopeptidase N.

The IC50 is the midpoint of a concentration-inhibition curve. `CC(C)C[C@@H](C(=O)N[C@H](C(=O)OC1CCCC1)c1ccccc1)[C@H](O)C(=O)NO` [Tosedostat]: the “effect on proliferation of U937 cells” value in the series on U937 cells is recorded as “substantially inhibits proliferation”. Moreover, in the series with peptidase activity, the “inhibition of fragmentation of a fluorogenic substrate” value is “approximately 50%”. Moreover, the IC50 in series [1] is 0.15 µM; in series [2], 0.1 µM; on aminopeptidase N, 0.22 µM.
